Laboratory results from publication PMC9921273, “Omega-3 PUFAs as a Dietary Supplement in Senile Systemic Amyloidosis” (Nutrients, 2023).

Tests used:
[1] = biological target: T1, transthyretin (wt-TTR) (Homo sapiens, UniProt P02766); assay: ANS fluorescence displacement binding assay (also turbidimetric and ThT fibril formation assays); set-up: wt-TTR tetramer, human plasma
[2] = biological target: T1, transthyretin (wt-TTR); assay: ANS fluorescence displacement binding assay (also turbidimetric fibril formation assay); set-up: wt-TTR tetramer, human plasma

IC50 [1]	IC50 [2]	Compound
12.1 ± 0.07 µM		CC/C=C\C/C=C\C/C=C\C/C=C\C/C=C\C/C=C\CCC(=O)O [DHA, docosahexaenoic acid]
	13 ± 0.08 µM	CC/C=C\C/C=C\C/C=C\C/C=C\C/C=C\CCCC(=O)O [EPA, eicosapentaenoic acid]
